{
  "source": "patent US9408827B2",
  "about": "“Sheet for cutaneous application containing vitamin E or an ester thereof” (IneSalus Corp., priority 2013, dated 2016)",
  "key": {"[1]": {"tested_on": "reconstituted human epidermis Epi-200 EpiDerm™", "assay": "Release of IL-1α in the culture medium (ELISA)", "conditions": "18-hour treatment; Tukey Kramer Multiple Comparisons Test", "description": "Tissue used: EPI-200-SIT EpiDerm™\nCulture medium: EPI-100-MM-HCF-60\n(§1) Incubation conditions: +37° C. in a 5% CO2 atmosphere\n(§2) Treatment with the sample: • continuous contact and incubation for 18 hours (single) • continuous contact and incubation for 7 days (double)\nControls Performed for the First Evaluation (18 Hours): • Negative control after 18 hours: inserts not treated • Positive control: inserts treated with 0.5% SDS (Sodium Dodecylsulphate) in sterile water during 18 hours of incubation;\nControls Performed for the 7-Day Evaluation: • Negative control: inserts not treated with the sample and kept for 7 days in the same incubation conditions as those treated with the sample.\nEvaluation of the Release of IL-1α in the Culture Medium:\nEvaluation in the culture medium obtained after the period of incubation of the sample with EPI-200. The release is measured by means of specific ELISA."}, "[2]": {"tested_on": "reconstituted human epidermis Epi-200 EpiDerm™", "assay": "Release of lactate dehydrogenase (LDH) in the culture medium", "conditions": "18-hour treatment; Tukey Kramer Multiple Comparisons Test", "excerpt": "Further information for better defining the irritation potential was obtained from subsequent measurement of the following parameters: • evaluation of the release, in the culture medium, of the lactate dehydrogenase (LDH), a cytoplasmic enzyme, release of which indicates loss of integrity of the cellular membrane; • evaluation of the release, in the culture medium, of pro-inflammatory cytokine by means of ELISA (Enzyme Linked Immunosorbent Assay).\nTissue used: EPI-200-SIT EpiDerm™\nCulture medium: EPI-100-MM-HCF-60\nas §1, §2\n(§3) Application was carried out by applying about 1 cm^2 of sample (i.e. of the sheet according to the invention obtained as per the example given above) per insert.\n(§4) Controls Performed for the First Evaluation (18 Hours): • Negative control after 18 hours: inserts not treated • Positive control: inserts treated with 0.5% SDS (Sodium Dodecylsulphate) in sterile water during 18 hours of incubation; […]\nEvaluation in the culture medium obtained after the incubation period of the sample with the epidermis model. The culture medium is incubated with a specific reagent so as to allow quantitive determination of the lactate dehydrogenase at 490 nm."}, "[3]": {"tested_on": "reconstituted human epidermis Epi-200 EpiDerm™", "assay": "Evaluation of the cellular vitality by MTT assay (EpiDerm Skin Irritation Test EPI-200-SIT)", "description": "The tolerability of the sheets according to the invention was evaluated by means of an in-vitro assay on models of reconstituted epidermis for evaluation of the cumulative irritation.\nThe assay in question was based on the In vitro Epiderm™ Skin Irritation Test (EPI-200-SIT) developed by the MatTek Corporation, which uses the model of reconstituted human epidermis Epi-200 EpiDerm™.\nThe assay consists in topical application of the material under testing on the reconstituted epidermis for contact times equal to or greater than 18 hours. The irritation potential is determined by means of evaluation of the cellular vitality using the MTT assay.\nConditions for Conducting the Assay for Evaluation of the Cellular Vitality\nTissue used: EPI-200-SIT EpiDerm™\nCulture medium: EPI-100-MM-HCF-60\nas §1, §2, §3, §4"}},
  "data": [
    {"smiles": "CCCCCCCCCCCCOS(=O)(=O)[O-].[Na+]", "note": "[Positive control, Sodium Dodecylsulphate]", "values": [
      {"measurement": "Release of IL-1α, statistical comparison in relation to the negative control", "setting": "[1]", "result": "*** (*** p < 0.001 extremely significant variation)"},
      {"measurement": "Release of LDH, statistical comparison in relation to the negative control", "setting": "[2]", "result": "*** (*** p < 0.001 extremely significant variation)"},
      {"measurement": "Average value of OD ± SD (MTT)", "setting": "[3]; 18-hour continuous contact and incubation", "result": "0.185 ± 0.004"},
      {"measurement": "Average value of the % vitality (MTT)", "setting": "[3]; 18-hour treatment, relative to negative control = 100%", "result": "8.40 ± 0.17", "unit": "%"}
    ]}
  ]
}
